Data on 41 molecules can be found in patent US7560567B2, “2-pyridinylethylbenzamide derivatives” (Bayer Cropscience S.A., priority 2003, dated 2009).

The subject of one test is Pyrenophora teres. The test is described as follows: In vivo test on Pyrenophora teres (barley net blotch), barley plants, preventive spray. The settings on record: 288 h, barley plants (Express), treated 24 h before contamination, grading 12 days after contamination vs control plants, read-out: protection (good, at least 50%, to total). The protocol:
(§1) The active ingredient tested is prepared by potter homogenisation in a concentrated suspension type formulation at 100 g/l. This suspension is then diluted with water to obtain the desired active material concentration.
Barley plants (Express variety) in starter cups, sown on a 50/50 peat soil-pozzolana substrate and grown at 12° C., are treated at the 1-leaf stage (10 cm tall) by spraying with the aqueous suspension described above. Plants, used as controls, are treated with an aqueous solution not containing the active material.
After 24 hours, the plants are contaminated by spraying them with an aqueous suspension of Pyrenophora teres spores (12,000 spores per ml). The spores are collected from a 12-day-old culture. The contaminated barley plants are incubated for 24 hours at about 20° C. and at 100% relative humidity, and then for 12 days at 80% relative humidity.
Grading is carried out 12 days after the contamination, in comparison with the control plants.

The test system of another test is Alternaria brassicae. Kind of test: In vivo test on Alternaria brassicae (leaf spot of crucifers), radish plants, preventive spray. The conditions noted are these: for pest or weed control at 330 ppm: Alternaria brassicae, radish plants (Pernot), treated 24 h before contamination, grading 6 to 7 days after contamination vs control plants, read-out: protection (good, at least 50%, to total); for effectiveness on Alternaria brassicae: 330 ppm, comparison compounds of WO 01/11965. Here is the method: as §1
Radish plants (Pernot variety) in starter cups, sown on a 50/50 peat soil-pozzolana substrate and grown at 18-20° C., are treated at the cotyledon stage by spraying with the aqueous suspension described above.
Plants, used as controls, are treated with an aqueous solution not containing the active material.
After 24 hours, the plants are contaminated by spraying them with an aqueous suspension of Alternaria brassicae spores (40,000 spores per cm^3). The spores are collected from a 12-13-day-old culture.
The contaminated radish plants are incubated for 6-7 days at about 18° C., under a humid atmosphere.
Grading is carried out 6 to 7 days after the contamination, in comparison with the control plants.

Another test deals with Botrytis cinerea. The test is described as follows: In vivo test on Botrytis cinerea (gherkin grey mould), gherkin plants, preventive spray. The settings on record: 330 ppm; comparison compounds of WO 01/11965. Here is the method: as §1
Gherkin plants (Petit Vert de Paris variety) in starter cups, sown on a 50/50 peat soil-pozzolana substrate and grown at 18-20° C., are treated at the cotyledon Z11 stage by spraying with the aqueous suspension described above. Plants, used as controls, are treated with an aqueous solution not containing the active material.
After 24 hours, the plants are contaminated by depositing drops of an aqueous suspension of Botrytis cinerea spores (150,000 spores per ml) on upper surface of the leaves. The spores are collected from a 15-day-old culture and are suspended in a nutrient solution composed of: • 20 g/L of gelatin • 50 g/L of cane sugar • 2 g/L of NH4NO3 • 1 g/L of KH2PO4
The contaminated gherkin plants are settled for 5/7 days in a climatic room at 15-11° C. (day/night) and at 80% relative humidity.
Grading is carried out 5/7 days after the contamination, in comparison with the control plants. Under these conditions, good (at least 50%) or total protection is observed at a dose of 330 ppm with the following compounds: 38 and 57.

SMILES strings stand for the structures. Where only a bound is given, the exact number is not on record here.

Regarding `CCC(CNC(=O)c1ccccc1C(F)(F)F)c1ncc(C(F)(F)F)cc1Cl` (stereo not drawn) [Compound 39, N-{2-[3-chloro-5-(trifluoromethyl)-2-Pyridinyl]butyl}-2-(trifluoromethyl)benzamide], in the test with Pyrenophora teres, the pest or weed control at 330 ppm was not below 50%.

As for `CC(CNC(=O)c1cccc(Cl)c1F)c1ncc(C(F)(F)F)cc1Cl` (stereo not drawn) [Compound 11], the pest or weed control at 330 ppm in the test with Alternaria brassicae was not below 50%.

Consider `CC(CNC(=O)c1ccccc1C(F)(F)F)c1ccc(C(F)(F)F)cn1` (stereo not drawn) [Compound 66], for which the pest or weed control at 330 ppm with Alternaria brassicae and in the test on Pyrenophora teres was not below 50% in each case.

In the case of `CCC(CNC(=O)c1ccccc1Br)c1ncc(C(F)(F)F)cc1Cl` (stereo not drawn) [Compound 40], in the test on Pyrenophora teres, the pest or weed control at 330 ppm is not below 50%.

As to `Cc1ccc(C(=O)NCC(C)c2ncc(C(F)(F)F)cc2Cl)c(C)c1` (stereo not drawn) [Compound 9], the pest or weed control at 330 ppm with Alternaria brassicae and in the test on Pyrenophora teres was not below 50% in each case.

Consider `CCNC(=O)C(Cc1ncc(C(F)(F)F)cc1Cl)NC(=O)c1ccccc1Br` (stereo not drawn) [compound 310, N-{1-ethylcarbamoyl-2-[3-chloro-5-(trifluoromethyl)-2-pyridinyl]ethyl}-2-bromobenzamide], for which, in the test with Botrytis cinerea, the “effectiveness on Botrytis cinerea” value is on record as “zero”.

For the molecule `CC(CNC(=O)c1ccccc1C(F)(F)F)c1ccc(C(F)(F)F)c(Cl)n1` (stereo not drawn) [Compound 62], the pest or weed control at 330 ppm with Alternaria brassicae and in the test on Pyrenophora teres was not below 50% throughout.

Turning to `CCNC(=O)C(Cc1ncc(C(F)(F)F)cc1Cl)NC(=O)c1ccccc1` (stereo not drawn) [compound 304, N-{1-ethylcarbamoyl-2-[3-chloro-5-(trifluoromethyl)-2-pyridinyl]-ethyl}-benzamide], the “effectiveness on Botrytis cinerea” value in the test on Botrytis cinerea is recorded as “zero”.

Take `CC(C)(CNC(=O)c1ccccc1C(F)(F)F)c1ncc(C(F)(F)F)cc1Cl` [Compound 33]: the pest or weed control at 330 ppm in the test on Alternaria brassicae and in the test with Pyrenophora teres was not below 50% throughout.

Turning to `CCNC(=O)C(Cc1ncc(C(F)(F)F)cc1Cl)NC(=O)c1ccc(Cl)cc1` (stereo not drawn) [compound 306, N-{1-ethylcarbamoyl-2-[3-chloro-5-(trifluoromethyl)-2-pyridinyl]ethyl}-4-chlorobenzamide], the “effectiveness on Botrytis cinerea” value with Botrytis cinerea is on record as “zero”.

In the case of `COc1ccccc1C(=O)NCC(C)c1ncc(C(F)(F)F)cc1Cl` (stereo not drawn) [Compound 4], the pest or weed control at 330 ppm with Alternaria brassicae is not below 50%.

With `CC(CNC(=O)c1ccccc1Br)c1ccc(C(F)(F)F)c(Cl)n1` (stereo not drawn) [Compound 64], the pest or weed control at 330 ppm in the test with Alternaria brassicae and in the test with Pyrenophora teres was not below 50% in each case.

For `CC(CNC(=O)c1cc(Cl)ccc1Cl)c1ncc(C(F)(F)F)cc1Cl` (stereo not drawn) [Compound 3], the pest or weed control at 330 ppm with Alternaria brassicae is not below 50%.

`Cc1c(F)cccc1C(=O)NCC(C)c1ncc(C(F)(F)F)cc1Cl` (stereo not drawn) [Compound 13]: the pest or weed control at 330 ppm with Alternaria brassicae and with Pyrenophora teres was not below 50% each time.

For the molecule `CCC(Cc1ncc(C(F)(F)F)cc1Cl)NC(=O)c1ccccc1C(F)(F)F` (stereo not drawn) [Compound 47, N-(1-{[3-chloro-5-(trifluoromethyl)-2-Pyridinyl]methyl}propyl)-2-(trifluoromethyl)benzamide], the pest or weed control at 330 ppm with Alternaria brassicae and in the test on Pyrenophora teres was not below 50% throughout.

Regarding `CCCC(CNC(=O)c1ccccc1C(F)F)c1ncc(C(F)(F)F)cc1Cl` (stereo not drawn) [Compound 44], in the test with Pyrenophora teres, the pest or weed control at 330 ppm was not below 50%.

For the molecule `CCCC(CCC)(CNC(=O)c1ccccc1I)c1ncc(C(F)(F)F)cc1Cl` [Compound 36], the pest or weed control at 330 ppm with Alternaria brassicae was not below 50%.

`CC(CNC(=O)c1ccccc1I)c1ccc(C(F)(F)F)cn1` (stereo not drawn) [Compound 67]: the pest or weed control at 330 ppm in the test with Alternaria brassicae and in the test on Pyrenophora teres was not below 50% in each case.

For `CCCC(CCC)(CNC(=O)c1ccccc1C(F)(F)F)c1ncc(C(F)(F)F)cc1Cl` [Compound 35], in the test on Alternaria brassicae, the pest or weed control at 330 ppm is not below 50%.

For the molecule `Cc1ccc(C)c(C(=O)NCC(C)c2ncc(C(F)(F)F)cc2Cl)c1` (stereo not drawn) [Compound 10], the pest or weed control at 330 ppm in the test on Alternaria brassicae and in the test with Pyrenophora teres was not below 50% each time.

As to `Cc1cccc(C(=O)NCC(C)c2ncc(C(F)(F)F)cc2Cl)c1C` (stereo not drawn) [Compound 8], the pest or weed control at 330 ppm in the test with Alternaria brassicae and with Pyrenophora teres was not below 50% in each case.

Take `CCC(CNC(=O)c1ccc(C)cc1C)c1ncc(C(F)(F)F)cc1Cl` (stereo not drawn) [Compound 25]: the pest or weed control at 330 ppm in the test with Alternaria brassicae is not below 50%.

`CC(CNC(=O)c1ccccc1C(F)(F)F)c1ncc(C(F)(F)F)cc1Cl` (stereo not drawn) [Compound 32]: the pest or weed control at 330 ppm in the test with Alternaria brassicae and in the test on Pyrenophora teres was not below 50% throughout.

On to `CCC(CNC(=O)c1ccccc1C)c1ncc(C(F)(F)F)cc1Cl` (stereo not drawn) [Compound 23], for which the pest or weed control at 330 ppm with Alternaria brassicae was not below 50%.

As to `Cc1c(Cl)cccc1C(=O)NCC(C)c1ncc(C(F)(F)F)cc1Cl` (stereo not drawn) [Compound 12], the pest or weed control at 330 ppm in the test on Alternaria brassicae was not below 50%.

In the case of `CNC(=O)C(Cc1ncc(C(F)(F)F)cc1Cl)NC(=O)c1ccccc1` (stereo not drawn) [compound 314, N-{1-methylcarbamoyl-2-[3-chloro-5-(trifluoromethyl)-2-pyridinyl]ethyl}-benzamide], the “effectiveness on Botrytis cinerea” value in the test with Botrytis cinerea was “zero”.

Turning to `Cc1c(O)cccc1C(=O)NCC(C)c1ncc(C(F)(F)F)cc1Cl` (stereo not drawn) [Compound 15], the pest or weed control at 330 ppm with Alternaria brassicae is not below 50%.

Regarding `Cc1ccccc1C(=O)NCC(C)c1ncc(C(F)(F)F)cc1Cl` (stereo not drawn) [Compound 7], the pest or weed control at 330 ppm in the test on Alternaria brassicae and in the test with Pyrenophora teres was not below 50% in each case.

As to `CC(CNC(=O)c1ccccc1I)c1ccc(C(F)(F)F)c(Cl)n1` (stereo not drawn) [Compound 63], the pest or weed control at 330 ppm in the test with Alternaria brassicae and in the test with Pyrenophora teres was not below 50% throughout.

Consider `CCC(CNC(=O)c1cccc(OC)c1OC)c1ncc(C(F)(F)F)cc1Cl` (stereo not drawn) [Compound 21], for which the pest or weed control at 330 ppm in the test with Alternaria brassicae was not below 50%.

On to `CCC(CNC(=O)c1ccccc1C(F)F)c1ncc(C(F)(F)F)cc1Cl` (stereo not drawn) [Compound 41], for which the pest or weed control at 330 ppm with Pyrenophora teres is not below 50%.

With `CNC(=O)C(Cc1ncc(C(F)(F)F)cc1Cl)NC(=O)c1ccc(-c2ccccc2)cc1` (stereo not drawn) [compound 316, N-{1-methylcarbamoyl-2-[3-chloro-5-(trifluoromethyl)-2-pyridinyl]-ethyl}-4-phenylbenzamide, reference compound], the “effectiveness on Alternaria brassicae” value with Alternaria brassicae was “poor”. Further, in the test on Botrytis cinerea, the “effectiveness on Botrytis cinerea” value is “zero”.

As for `CC(Cc1ccc(C(F)(F)F)c(Cl)n1)NC(=O)c1ccccc1C(F)(F)F` (stereo not drawn) [Compound 61], the pest or weed control at 330 ppm in the test on Pyrenophora teres was not below 50%.

Take `CCNC(=O)C(Cc1ncc(C(F)(F)F)cc1Cl)NC(=O)c1cccc([N+](=O)[O-])c1` (stereo not drawn) [compound 307, N-{1-ethylcarbamoyl-2-[3-chloro-5-(trifluoromethyl)-2-pyridinyl]ethyl}-3-nitrobenzamide, reference compound]: the “effectiveness on Alternaria brassicae” value in the test on Alternaria brassicae is “poor”. Moreover, the “effectiveness on Botrytis cinerea” value with Botrytis cinerea is “zero”.

Turning to `CNC(=O)C(Cc1ncc(C(F)(F)F)cc1Cl)NC(=O)c1ccc(OC)cc1` (stereo not drawn) [compound 315, N-{1-methylcarbamoyl-2-[3-chloro-5-(trifluoromethyl)-2-pyridinyl]ethyl}-4-methoxybenzamide], the “effectiveness on Botrytis cinerea” value in the test with Botrytis cinerea was “zero”.

Take `CC(NC(=O)c1ccccc1C(F)(F)F)C(C)c1ncc(C(F)(F)F)cc1Cl` (stereo not drawn) [Compound 58]: the pest or weed control at 330 ppm with Alternaria brassicae and in the test with Pyrenophora teres was not below 50% in each case.

`CC(Cc1ncc(C(F)(F)F)cc1Cl)NC(=O)c1ccccc1C(F)(F)F` (stereo not drawn) [Compound 38]: the pest or weed control at 330 ppm in the test with Alternaria brassicae and in the test with Pyrenophora teres was not below 50% throughout.

As to `CCCC(CNC(=O)c1ccccc1Br)c1ncc(C(F)(F)F)cc1Cl` (stereo not drawn) [Compound 43], the pest or weed control at 330 ppm with Alternaria brassicae and with Pyrenophora teres was not below 50% throughout.

For `CCC(CNC(=O)c1cccc(O)c1C)c1ncc(C(F)(F)F)cc1Cl` (stereo not drawn) [Compound 30], the pest or weed control at 330 ppm in the test on Pyrenophora teres was not below 50%.

`CCCC(CNC(=O)c1ccccc1C(F)(F)F)c1ncc(C(F)(F)F)cc1Cl` (stereo not drawn) [Compound 42]: the pest or weed control at 330 ppm in the test with Alternaria brassicae was not below 50%.

Take `CC(NC(=O)c1ccccc1I)C(C)c1ncc(C(F)(F)F)cc1Cl` (stereo not drawn) [Compound 59]: the pest or weed control at 330 ppm with Alternaria brassicae and with Pyrenophora teres was not below 50% each time.
